Source: the supplement of paper PMC10307832

Assays:
Assay in all cases: relative viability (nuclei count vs DMSO), 5 days (fraction); higher = more cells survive
[1] = compound: Cn1cncc1[C@@](N)(c1ccc(Cl)cc1)c1ccc2c(c1)c(-c1cccc(Cl)c1)cc(=O)n2C [Tipifarnib] + CS(=O)(=O)N1CCN(Cc2cc3nc(-c4cccc5[nH]ncc45)nc(N4CCOCC4)c3s2)CC1 [Pictilisib] (partner 1 µM)
Outline: (§1)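 Relative viability divides the nuclei count in treated wells by that in vehicle wells. Lung cancer cell lines were seeded in 1536-well plates, dosed by pin tool the next day, and fixed and stained after 5 days in one step with final 0.05% Triton X-100, 1% formaldehyde and 1 ug/ml Hoechst. Dosing was a single drug or a fixed anchor-drug dose plus five library-drug doses (not always all listed) in √10 steps, and values are medians of duplicate plates imaged at 4×.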

[2] = compound: Cn1cncc1[C@@](N)(c1ccc(Cl)cc1)c1ccc2c(c1)c(-c1cccc(Cl)c1)cc(=O)n2C [Tipifarnib] + CC(C)C[C@H](NC(=O)[C@H](Cc1ccccc1)NC(=O)c1cnccn1)B(O)O [Bortezomib] (partner 0.002 µM)
Outline: as §1

[3] = compound: Cn1cncc1[C@@](N)(c1ccc(Cl)cc1)c1ccc2c(c1)c(-c1cccc(Cl)c1)cc(=O)n2C [Tipifarnib] + COc1cc2c(Oc3ccc(NC(=O)C4(C(=O)Nc5ccc(F)cc5)CC4)cc3F)ccnc2cc1OCCCN1CCOCC1 [Foretinib] (partner 0.25 µM)
Outline: as §1

[4] = compound: Cn1cncc1[C@@](N)(c1ccc(Cl)cc1)c1ccc2c(c1)c(-c1cccc(Cl)c1)cc(=O)n2C [Tipifarnib] + CC(=O)c1c(C)c2cnc(Nc3ccc(N4CCNCC4)cn3)nc2n(C2CCCC2)c1=O [Palbociclib] (partner 0.5 µM)
Outline: as §1

Cell Line	relative viability ([1]; first compound 0.01 µM)	relative viability ([1]; first compound 0.03162 µM)	relative viability ([1]; first compound 0.1 µM)	relative viability ([1]; first compound 0.3162 µM)	relative viability ([1]; first compound 1 µM)	relative viability ([2]; first compound 0.01 µM)	relative viability ([2]; first compound 0.03162 µM)	relative viability ([2]; first compound 0.1 µM)	relative viability ([2]; first compound 0.3162 µM)	relative viability ([2]; first compound 1 µM)	relative viability ([3]; first compound 0.01 µM)	relative viability ([3]; first compound 0.03162 µM)	relative viability ([3]; first compound 0.1 µM)	relative viability ([3]; first compound 0.3162 µM)	relative viability ([3]; first compound 1 µM)	relative viability ([4]; first compound 0.01 µM)	relative viability ([4]; first compound 0.03162 µM)	relative viability ([4]; first compound 0.1 µM)	relative viability ([4]; first compound 0.3162 µM)	relative viability ([4]; first compound 1 µM)
NCI-H1650	0.409	0.228	0.337	0.265	0.191	0.224	0.204	0.202	0.209	0.191	0.766	0.633	0.668	0.424	0.554	0.295	0.211	0.243	0.205	0.183
NCI-H1651	0.632	0.566	0.562	0.512	0.319	0.94	0.916	1.04	0.842	0.78	0.833	0.79	0.85	0.717	0.831	0.502	0.52	0.544	0.502	0.511
NCI-H1666	0.464	0.393	0.419	0.332	0.367	0.801	0.793	0.671	0.614	0.442	0.923	0.888	0.866	0.873	0.748	0.684	0.676	0.695	0.626	0.663
NCI-H1734	0.486	0.356	0.38	0.331	0.346	0.953	0.764	0.724	0.502	0.385	0.902	0.832	0.729	0.458	0.487	0.353	0.327	0.323	0.298	0.261
NCI-H1755	0.466	0.358	0.423	0.344	0.274	0.987	0.835	0.848	0.821	0.626	0.88	0.889	0.908	0.849	0.456	0.464	0.471	0.463	0.445	0.465
NCI-H1915	0.581	0.513	0.511	0.397	0.31	0.844	0.466	0.54	0.418	0.286	1.01	0.816	0.606	0.593	0.577	0.317	0.318	0.281	0.218	0.241
NCI-H1975	0.347	0.293	0.255	0.228	0.259	0.49	0.283	0.311	0.214	0.2	0.936	0.967	0.939	0.604	0.568	0.615	0.536	0.524	0.39	0.35
NCI-H1993	0.686	0.812	0.861	0.888	0.913	1.12	0.852	0.955	0.608	0.806	0.832	0.716	0.589	0.605	0.548	0.604	0.531	0.431	0.463	0.413
